The values below come from ChEMBL document CHEMBL1155038, “Discovery of phosphonic diamide prodrugs and their use for the oral delivery of a series of fructose 1,6-bisphosphatase inhibitors” (J Med Chem, 2008).

Data set [1] relates to Rattus norvegicus. As to the kind of experiment: Bioavailability in fasted Sprague-Dawley rat assessed as urinary excretion of phosphoric acid at 10 to 50 mg/kg, po after 24 hrs by HPLC relative to iv dosed phosphoric acid. Type of data set: ADME, organism-based, Urine. The settings on record: in vivo.
The subject of data set [2] is Rattus norvegicus. Nature of the data set: Reduction in blood glucose level in fasted Sprague-Dawley rat at <=10 mg/kg, iv relative to control. Also noted: scale not given: the % may be the effect or the level left. The format is functional.
The test system of data set [3] is Rattus norvegicus. As to the kind of experiment: Reduction in blood glucose level in fasted Sprague-Dawley rat at 30 mg/kg, po relative to control. The format is functional. Also on record: scale not given: the % may be the effect or the level left.
The subject of data set [4] is Rattus norvegicus. Nature of the data set: Reduction in blood glucose level in Sprague-Dawley rat assessed as time of maximum glucose lowering at 30 mg/kg, po. The format is functional.
The test system of a further data set is Hepatocyte. As to the kind of experiment: Drug uptake in cryopreserved human hepatocytes per million cells at 100 uM after 60 mins. Type of data set: ADME, cell-based. Particulars: 1 h.
Data set [5] in a line: Stability in human liver S9 fractions assessed as prodrug conversion per mg of protein. The format is ADME, subcellular, S9 fraction.

For `CCCCOC(=O)[C@H](C)NP(=O)(N[C@@H](C)C(=O)OCCCC)c1ccc(-c2nc(N)sc2SCCC)o1`, the F in the data set with Rattus norvegicus [1] is recorded as 2%.

`CCOC(=O)c1sc(N)nc1-c1ccc(P(=O)(NC2(C(=O)OCC)CCCC2)NC2(C(=O)OCC)CCCC2)o1`: in the data set with Rattus norvegicus [1], the F is recorded as 5%.

In the case of `CCOC(=O)[C@@H](NP(=O)(N[C@H](C(=O)OCC)C(C)C)c1ccc(-c2nc(N)sc2CC(C)C)o1)C(C)C`, the F in the data set with Rattus norvegicus [1] amounted to 7%.

As for `CCOC(=O)C(C)(C)NP(=O)(COCCn1cnc2c(N)ncnc21)NC(C)(C)C(=O)OCC`, the F with Rattus norvegicus [1] was determined as 4%.

For `CC(C)Cc1sc(N)nc1-c1ccc(P(=O)(OCOC(=O)OC(C)C)OCOC(=O)OC(C)C)o1`, the F with Rattus norvegicus [1] is reported as 13%.

With `CCC[C@H](NP(=O)(N[C@@H](CCC)C(=O)OCC)c1ccc(-c2nc(N)sc2C(=O)OCC)o1)C(=O)OCC`, the F with Rattus norvegicus [1] turned out to be 4%.

With `CC(C)Cc1sc(N)nc1-c1ccc(P(=O)(N[C@@H](C)C(=O)OCC(C)(C)C)N[C@@H](C)C(=O)OCC(C)(C)C)o1`, in the data set with Rattus norvegicus [1], the F came out at 18%.

`CCCSc1sc(N)nc1-c1ccc(P(=O)(N[C@@H](C)C(=O)OC(C)C)N[C@@H](C)C(=O)OC(C)C)o1`: the F with Rattus norvegicus [1] is listed as 17%.

With `CC(C)Cc1sc(N)nc1-c1ccc(P(=O)(OCOC(=O)C(C)(C)C)OCOC(=O)C(C)(C)C)o1`, the F in the data set with Rattus norvegicus [1] is 11%.

Turning to `CCCOC(=O)[C@H](C)NP(=O)(N[C@@H](C)C(=O)OCCC)c1ccc(-c2nc(N)sc2CC(C)C)o1`, the F in the data set on Rattus norvegicus [1] came to 16%.

`CCOC(=O)c1sc(N)nc1-c1ccc(P(=O)(O)O)o1` came in with an Activity with Rattus norvegicus [2] of more than 50%.

Regarding `CCCSc1sc(N)nc1-c1ccc(P(=O)(NC(C)(C)C(=O)OCC)NC(C)(C)C(=O)OCC)o1`, the F with Rattus norvegicus [1] is recorded as 31%. In the data set with Rattus norvegicus [3], this compound returned an Activity of 51%. Moreover, in the data set with Rattus norvegicus [4], the Time amounted to 2 h.

As for `CSc1sc(N)nc1-c1ccc(P(=O)(O)O)o1`, in the data set with Rattus norvegicus [2], the Activity is more than 50%.

Take `CCOC(=O)[C@H](C)NP(=O)(N[C@@H](C)C(=O)OCC)c1ccc(-c2nc(N)sc2CC(C)C)o1`: the F with Rattus norvegicus [1] amounted to 22%. For the same compound, the Activity in the data set on Rattus norvegicus [3] was determined as 59%. Moreover, the Time in the data set on Rattus norvegicus [4] is 2 h. For the same compound, the Drug uptake in the data set on Hepatocyte came out at 7 nmol. Moreover, in data set [5], the Stability was determined as 0.004 nM/min.

In the case of `CCCSc1sc(N)nc1-c1ccc(P(=O)(NC2(C(=O)OCC)CCCC2)NC2(C(=O)OCC)CCCC2)o1`, the F in the data set on Rattus norvegicus [1] was determined as 49%.

Consider `CC(C)Cc1sc(N)nc1-c1ccc(P(=O)(NCC(=O)OC(C)(C)C)NCC(=O)OC(C)(C)C)o1`, for which, in the data set on Rattus norvegicus [1], the F is listed as 9%.

`CC(C)COC(=O)[C@H](C)NP(=O)(N[C@@H](C)C(=O)OCC(C)C)c1ccc(-c2nc(N)sc2CC(C)C)o1`: the F with Rattus norvegicus [1] is 10%.

`CCCSc1sc(N)nc1-c1ccc(P(=O)(N[C@@H](COC(C)(C)C)C(=O)OC)N[C@@H](COC(C)(C)C)C(=O)OC)o1`: the F in the data set on Rattus norvegicus [1] is 9%.

`CCOC(=O)[C@H](Cc1ccccc1)NP(=O)(N[C@@H](Cc1ccccc1)C(=O)OCC)c1ccc(-c2nc(N)sc2CC(C)C)o1`: in the data set on Rattus norvegicus [1], the F is 3%.

For the compound `CCOC(=O)c1sc(N)nc1-c1ccc(P(=O)(N[C@@H](C)C(=O)OCC)N[C@@H](C)C(=O)OCC)o1`, the F in the data set with Rattus norvegicus [1] is 30%. In the data set on Rattus norvegicus [3], this compound registered an Activity of 12%. Moreover, the Time in the data set with Rattus norvegicus [4] is 3 h.

Regarding `CCOC(=O)[C@H](CSCc1ccccc1)NP(=O)(N[C@@H](CSCc1ccccc1)C(=O)OCC)c1ccc(-c2nc(N)sc2CC(C)C)o1`, the F in the data set on Rattus norvegicus [1] worked out at 5%.

On to `CCCSc1sc(N)nc1-c1ccc(P(=O)(N[C@@H](C)C(=O)OC2CCCCCC2)N[C@@H](C)C(=O)OC2CCCCCC2)o1`, for which, in the data set with Rattus norvegicus [1], the F is reported as 12%.

In the case of `CC(C)Cc1sc(N)nc1-c1ccc(P(=O)(N[C@@H](C)C(=O)OC(C)C)N[C@@H](C)C(=O)OC(C)C)o1`, the F with Rattus norvegicus [1] was found to be 31%. Also, the Activity in the data set on Rattus norvegicus [3] amounted to 63%. Besides, the Time in the data set on Rattus norvegicus [4] is 2 h.

`Nc1nc(-c2ccc(P(=O)(O)O)o2)c(-c2ccccc2)s1` registered an Activity in the data set on Rattus norvegicus [2] of more than 50%.

For `CCOC(=O)[C@H](CC(C)C)NP(=O)(N[C@@H](CC(C)C)C(=O)OCC)c1ccc(-c2nc(N)sc2CC(C)C)o1`, the F with Rattus norvegicus [1] turned out to be 3%.

`CCOC(=O)CNP(=O)(NCC(=O)OCC)c1ccc(-c2nc(N)sc2CC(C)C)o1`: in the data set on Rattus norvegicus [1], the F is reported as 26%. This compound also had an Activity in the data set with Rattus norvegicus [3] of 51%. Moreover, in the data set with Rattus norvegicus [4], the Time came out at 2 h.

`CCCSc1sc(N)nc1-c1ccc(P(=O)(N[C@@H](CCC)C(=O)OCC)N[C@@H](CCC)C(=O)OCC)o1`: in the data set with Rattus norvegicus [1], the F was 6%.

For the compound `CCOC(=O)C1(NP(=O)(NC2(C(=O)OCC)CCCC2)c2ccc(-c3nc(N)sc3CC(C)C)o2)CCCC1`, in the data set with Rattus norvegicus [1], the F is given as 27%. The compound further yielded an Activity in the data set with Rattus norvegicus [3] of 20%. In addition, the Time in the data set on Rattus norvegicus [4] came to 2 h.

For `CC(C)OC(=O)[C@H](C)NP(=O)(N[C@@H](C)C(=O)OC(C)C)c1ccc(-c2nc(N)sc2-c2ccccc2)o1`, in the data set on Rattus norvegicus [1], the F was determined as 23%. For the same compound, the Activity with Rattus norvegicus [3] came to 19%. In addition, the Time in the data set with Rattus norvegicus [4] is 5 h.

Turning to `COC(=O)[C@@H](C)NP(=O)(N[C@H](C)C(=O)OC)c1ccc(-c2nc(N)sc2CC(C)C)o1`, the F with Rattus norvegicus [1] is 22%. Besides, in the data set on Rattus norvegicus [3], the Activity is listed as 26%. Also, the Time in the data set on Rattus norvegicus [4] is 2 h.

Turning to `CCOC(=O)c1sc(N)nc1-c1ccc(P(=O)(N[C@H](C(=O)OCC)C(C)C)N[C@H](C(=O)OCC)C(C)C)o1`, the F in the data set with Rattus norvegicus [1] is 6%.

With `CCCSc1sc(N)nc1-c1ccc(P(=O)(NC2(C(=O)OCC)CCCCC2)NC2(C(=O)OCC)CCCCC2)o1`, the F in the data set with Rattus norvegicus [1] is 1%.

`CCOC(=O)[C@H](CC)NP(=O)(N[C@@H](CC)C(=O)OCC)c1ccc(-c2nc(N)sc2CC(C)C)o1`: the F in the data set with Rattus norvegicus [1] is 8%.

On to `CCOC(=O)C(C)(C)NP(=O)(c1ccc(-c2nc(N)sc2CC(C)C)o1)N1CCCC1` (configuration not stated), for which, in the data set on Rattus norvegicus [1], the F is on record as 37%.

Take `CCCSc1sc(N)nc1-c1ccc(P(=O)(N[C@@H](C)C(=O)OC(C)(C)C)N[C@@H](C)C(=O)OC(C)(C)C)o1`: in the data set with Rattus norvegicus [1], the F is 4%.

`CCCSc1sc(N)nc1-c1ccc(P(=O)(O)O)o1` came in with an Activity in the data set with Rattus norvegicus [2] of more than 50%.

As for `CCOC(=O)c1sc(N)nc1-c1ccc(P(=O)(N[C@@H](CC)C(=O)OCC)N[C@@H](CC)C(=O)OCC)o1`, in the data set on Rattus norvegicus [1], the F is reported as 5%.

`CCCSc1sc(N)nc1-c1ccc(P(=O)(N[C@@H](CC)C(=O)OCC)N[C@@H](CC)C(=O)OCC)o1`: the F in the data set with Rattus norvegicus [1] was determined as 6%.

Regarding `CCOC(=O)C(C)(C)NP(=O)(c1ccc(-c2nc(N)sc2CC(C)C)o1)N1CCOCC1` (configuration not stated), the F in the data set with Rattus norvegicus [1] is listed as 32%.

Turning to `CC(C)Cc1sc(N)nc1-c1ccc(P(=O)(N[C@@H](C)C(=O)OCc2ccccc2)N[C@@H](C)C(=O)OCc2ccccc2)o1`, in the data set with Rattus norvegicus [1], the F is recorded as 11%.

As to `COC(=O)CNP(=O)(COCCn1cnc2c(N)ncnc21)NCC(=O)OC`, in the data set with Rattus norvegicus [1], the F came out at 2%.

Regarding `CCOC(=O)C(C)(C)NP(=O)(NC(C)(C)C(=O)OCC)c1ccc(-c2nc(N)sc2-c2ccccc2)o1`, the F with Rattus norvegicus [1] was 30%. The compound also yielded an Activity in the data set on Rattus norvegicus [3] of 25%. Besides, in the data set on Rattus norvegicus [4], the Time is 2 h.

On to `CC(C)CNP(=O)(NCC(C)C)c1ccc(-c2nc(N)sc2CC(C)C)o1`, for which the F with Rattus norvegicus [1] was 0%.

On to `CCOC(=O)C(C)NP(=O)(NC(C)C(=O)OCC)c1ccc(-c2nc(N)sc2CC(C)C)o1` (mixture of isomers), for which, in the data set with Rattus norvegicus [1], the F turned out to be 28%. In the data set with Rattus norvegicus [3], this compound came in with an Activity of 52%. Besides, in the data set on Rattus norvegicus [4], the Time came to 2 h.

For the compound `CCCSc1sc(N)nc1-c1ccc(P(=O)(N[C@H](C(=O)OCC)C(C)C)N[C@H](C(=O)OCC)C(C)C)o1`, the F in the data set with Rattus norvegicus [1] was determined as 6%.

As for `CC(C)Cc1sc(N)nc1-c1ccc(P(=O)(O)O)o1` [MB-05032], the F with Rattus norvegicus [1] is 2%. In addition, the Activity with Rattus norvegicus [2] is given as more than 50%.

Take `CCCSc1sc(N)nc1-c1ccc(P(=O)(N[C@@H](C)C(=O)OCC)N[C@@H](C)C(=O)OCC)o1`: the F in the data set on Rattus norvegicus [1] turned out to be 17%.

With `CCCOC(=O)[C@H](C)NP(=O)(N[C@@H](C)C(=O)OCCC)c1ccc(-c2nc(N)sc2SCCC)o1`, the F in the data set on Rattus norvegicus [1] is recorded as 19%.

Regarding `CCOC(=O)C(C)(C)NP(=O)(NC(C)(C)C(=O)OCC)c1ccc(-c2nc(N)sc2CC(C)C)o1`, the F in the data set on Rattus norvegicus [1] is 47%. For the same compound, the Activity in the data set with Rattus norvegicus [3] is on record as 45%. For the same compound, the Time in the data set with Rattus norvegicus [4] worked out at 2 h.

For the compound `CC(C)Cc1sc(N)nc1-c1ccc(P(=O)(NCC(=O)OCc2ccccc2)NCC(=O)OCc2ccccc2)o1`, the F in the data set on Rattus norvegicus [1] came to 17%.

On to `CCOC(=O)[C@H](C)NP(=O)(N[C@@H](C)C(=O)OCC)c1ccc(-c2nc(N)sc2SC)o1`, for which the F in the data set on Rattus norvegicus [1] stood at 23%. The compound also returned an Activity with Rattus norvegicus [3] of 38%. Further, the Time with Rattus norvegicus [4] came to 2 h.

Consider `CCOC(=O)C(C)(C)NP(=O)(NC(C)(C)C(=O)OCC)c1ccc(-c2nc(N)sc2SC)o1`, for which the F in the data set with Rattus norvegicus [1] is recorded as 45%. Moreover, the Activity in the data set with Rattus norvegicus [3] was 80%. Further, the Time in the data set with Rattus norvegicus [4] worked out at 2 h.

On to `CCOC(=O)[C@H](C)NP(=O)(N[C@@H](C)C(=O)OCC)c1ccc(-c2nc(N)sc2-c2ccccc2)o1`, for which the F in the data set on Rattus norvegicus [1] is listed as 31%.
